Values belong to the molecule of their own block, whether it stands above or below them.
Experiments:
[1] = biological target: T1, α4β1 integrin (Jurkat cell adhesion to immobilized CS-1 derived peptide CLHPGEILDVPST) (Homo sapiens, UniProt P05556+P13612); experiment: Jurkat-CS-1 Assay; type: cell-based; details: Jurkat cells on CS-1 peptide coated plates
T1 construct: 100 μl of Jurkat cells (2.5×10^6 cells/ml) in DMEM plus BSA; endogenous in cells; host or cells: Jurkat T-cell line
Procedure: The CS-1 derived peptide, CLHPGEILDVPST, and the scrambled control peptide, CLHGPIELVSDPT, were synthesized on a Beckman 990 synthesizer using t-Boc methodology. The peptides were immobilized onto microtiter plates using the heterobifunctional crosslinker 3-(2-pyridyldithio)propionic acid N-hydroxysuccinimide ester (SPDP) as reported by Pierschbacher et al., Proc. Natl. Acad. USA, 80:1224-1227 (1983). Microtiter plates were coated with 20 μg/ml HSA for 2 hr. at room temperature, washed once with PBS and derivatized with 10 μg/ml SPDP for 1 hr. After washing, 100 μl of a 100 μg/ml cysteine containing peptide solution which had been recently dissolved was added to the wells and allowed to crosslink to the plates overnight at 4° C. Unbound peptide was removed from plates by washing with PBS. To block non-reacted sites, the plates are coated with 100 μl of a 2.5 mg/ml BSA solution in PBS for 1 hr. at 37° C. 100 μl of Jurkat cells (2.5×10^6 cells/ml) in DMEM plus BSA (2.5 mg/ml) was mixed with an appropriate concentration of the compound to be tested and the mixture was added to peptide coated dishes and incubated for 1 hr. at 37° C. Generally 100, 20, 5 and 1.25 μM concentrations of the compound were tested.
Following this incubation the plates were washed once with PBS and the attached cells were fixed with 3% paraformaldehyde in PBS and stained with 0.5% toluidine blue in 3.7% formaldehyde. The cells were stained overnight at room temperature and the optical density at 590 nm of toluidine blue stained cells was determined using a vertical pathway spectrophotometer to quantitate attachment (VMAX Kinetic Microplate Reader, Molecular Devices, Menlo Park, Calif.). This procedure is a modification of a previously published method (Cardarelli et al, J. Biol. Chem., 269:18668-18673 (1994) and Cardarelli et al, Proc. Natl. Acad. Sci. USA, 83:2647-2651 (1986)).

[2] = biological target: T2, α4β1 integrin (Jurkat T-cell adhesion to IL-1 stimulated endothelial cell monolayers) (Homo sapiens, UniProt P05556+P13612); experiment: Jurkat-Endothelial Cell Adhesion Assay (Jurkat EC); type: cell-based; details: Jurkat cells on IL-1 stimulated HUVEC monolayers
T2 construct: a T-cell line, Jurkat, known to express the α4β1 integrin; host or cells: Jurkat T-cell line
Procedure: The following assay established the activity of the present compounds in inhibiting β1-mediated cell adhesion in a representative in vitro system. This assay measures the adhesive interactions of a T-cell line, Jurkat, known to express the α4β1 integrin, to endothelial monolayers in the presence of test compounds. The test compounds were added in increasing concentrations to T-cells and then the T-cell compound mixture was added to IL-1 stimulated endothelial cell monolayers. The plates were incubated, washed and the percentage of attached cells was quantitated. […] Human umbilical vein endothelial cells were purchased from Clonetics (San Diego, Calif.) at passage number 2. The cells were grown on 0.5% porcine skin gelatin pre-coated flasks (Sigma, St. Louis Mo.) in EGM-UV media (Clonetics, San Diego, Calif.) supplemented with 10% fetal bovine serum. Cells are refed every 2-3 days reaching confluence by day 4 to 6. […] The endothelial cells are not used following passage 6. Am The T-cell line Jurkat was obtained from American Type Tissue Culture Collection (Rockville, Md.) and the cells were cultured in RPMI containing 10% fetal calf serum. The cells were washed twice in Hank's Balanced Salt Solution (HBSS) and resuspended in Dulbecco's […] Eagle's Media (DMEM) containing 2.5 mg/ml Human Serum Albumin (HSA). Jurkat cells (1×10^6 cells/ml) were stained with 10 ng/ml BCECF-AM z z (Molecular Probes, Eugene, Ore.)) in HBSS without phenol red. The cells were loaded with BCECF for 60 minutes in the dark at 37° C., washed 2 times, and resusupended in DMEM-HSA solution.
Confluent endothelial monolayers, grown in 96-well tissue culture plates, were stimulated for 4 hr. at 37° C. with 0.1 ng/ml (˜50 U/ml) recombinant IL-1 (Amgen, Thousand Oaks, Calif.). Following this incubation, the monolayers were washed twice with HBSS and 0.1 ml of DMEM-HSA solution was added. Jurkat cells (5×10^5 cells) were combined with the appropriate concentration of the test compound and 0.1 ml of the Jurkat cell-compound mixture was added to the endothelial cell monolayers. Generally, 100, 20, 5 and 1.25 μM compound concentrations were tested. […] The plates were placed on ice for 5 minutes to allow for Jurkat cell settling and the plates were incubated at 37° C. for 20 minutes. Following this incubation, the monolayers were washed twice with PBS containing 1 mM calcium chloride and 1 mM magnesium chloride and the plates were read using a Millipore Cytofluor 2300 (Marlboro, Mass.). Fluorescence in each well was measured as Arbitrary Fluorescence Units and percent adhesion in the absence of compound was adjusted to 100% and the % adhesion in the presence of compound was calculated. Monolayers were also fixed in 3% paraformaldehyde and evaluated microscopically to verify the adhesion. This procedure is a modification of a previously published method (Cardarelli et al., J. Biol. Chem. 269:18668-18673 (1994)).

T2 sequence (P13612 34-1032): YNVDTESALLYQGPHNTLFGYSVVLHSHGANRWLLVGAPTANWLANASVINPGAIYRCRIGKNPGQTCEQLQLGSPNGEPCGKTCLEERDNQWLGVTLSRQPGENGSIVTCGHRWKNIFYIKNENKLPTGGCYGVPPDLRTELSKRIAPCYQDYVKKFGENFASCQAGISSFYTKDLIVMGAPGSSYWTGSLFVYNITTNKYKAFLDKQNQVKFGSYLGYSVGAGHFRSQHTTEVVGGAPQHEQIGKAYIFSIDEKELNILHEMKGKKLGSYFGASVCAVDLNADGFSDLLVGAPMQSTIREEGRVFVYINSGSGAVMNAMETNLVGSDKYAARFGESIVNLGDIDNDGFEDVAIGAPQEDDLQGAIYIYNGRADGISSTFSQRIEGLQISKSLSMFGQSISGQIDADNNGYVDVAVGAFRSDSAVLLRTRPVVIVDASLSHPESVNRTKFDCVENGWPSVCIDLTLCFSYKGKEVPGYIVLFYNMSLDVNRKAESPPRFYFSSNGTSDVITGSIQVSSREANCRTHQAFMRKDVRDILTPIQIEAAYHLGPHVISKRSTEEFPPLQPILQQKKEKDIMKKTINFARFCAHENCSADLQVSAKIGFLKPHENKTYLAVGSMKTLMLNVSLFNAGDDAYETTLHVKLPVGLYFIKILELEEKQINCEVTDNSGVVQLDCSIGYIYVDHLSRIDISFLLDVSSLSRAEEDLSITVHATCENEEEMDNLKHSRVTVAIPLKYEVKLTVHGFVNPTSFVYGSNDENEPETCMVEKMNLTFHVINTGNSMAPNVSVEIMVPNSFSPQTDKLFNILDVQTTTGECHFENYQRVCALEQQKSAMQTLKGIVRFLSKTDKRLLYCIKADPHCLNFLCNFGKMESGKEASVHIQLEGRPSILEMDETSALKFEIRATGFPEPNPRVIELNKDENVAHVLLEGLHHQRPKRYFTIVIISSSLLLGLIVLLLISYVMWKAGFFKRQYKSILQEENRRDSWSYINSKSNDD
T2 sequence (P05556 21-798): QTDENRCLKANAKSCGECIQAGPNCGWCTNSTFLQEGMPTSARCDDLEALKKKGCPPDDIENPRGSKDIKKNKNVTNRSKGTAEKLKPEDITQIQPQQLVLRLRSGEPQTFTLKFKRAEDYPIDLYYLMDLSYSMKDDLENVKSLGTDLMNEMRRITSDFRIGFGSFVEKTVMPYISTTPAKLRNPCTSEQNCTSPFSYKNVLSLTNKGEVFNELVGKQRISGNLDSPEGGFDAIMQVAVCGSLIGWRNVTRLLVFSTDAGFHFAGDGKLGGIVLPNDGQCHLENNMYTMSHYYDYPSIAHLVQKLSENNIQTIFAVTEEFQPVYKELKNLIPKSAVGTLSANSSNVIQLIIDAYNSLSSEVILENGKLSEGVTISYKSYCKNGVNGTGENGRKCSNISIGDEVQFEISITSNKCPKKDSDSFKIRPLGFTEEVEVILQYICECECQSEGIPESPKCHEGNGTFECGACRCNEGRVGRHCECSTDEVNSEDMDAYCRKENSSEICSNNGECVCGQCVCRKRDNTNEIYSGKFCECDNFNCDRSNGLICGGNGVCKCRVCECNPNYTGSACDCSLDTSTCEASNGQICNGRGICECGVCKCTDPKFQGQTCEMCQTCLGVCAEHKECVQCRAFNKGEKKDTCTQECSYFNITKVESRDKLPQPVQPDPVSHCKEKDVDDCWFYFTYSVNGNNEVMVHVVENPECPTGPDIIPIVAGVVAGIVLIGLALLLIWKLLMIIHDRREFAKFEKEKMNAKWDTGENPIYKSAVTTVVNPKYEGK
T1 sequence (P13612 34-1032): as the sequence (P13612 34-1032) above
T1 sequence (P05556 21-798): as the sequence (P05556 21-798) above

Compound: CC1(C)[C@@H](C(=O)N[C@@H](Cc2ccc(OCc3ccccc3)cc2)C(=O)O)CC[C@@]1(C)C(=O)O [Example 2, (1S-cis)-N-[(3-Carboxy-2,2,3-trimethylcyclopentyl)carbonyl]-O-(phenylmethyl)-L-tyrosine]
- IC50 [1]: 500 to 1000 nM
- melting point: 146 to 149 °C

Compound: CC1(C)[C@@H](C(=O)N[C@@H](Cc2ccc(OCC3CCCCC3)cc2)C(=O)O)CC[C@@]1(C)C(=O)O [Example 13]
- IC50 [1]: 500 to 1000 nM
- melting point: 102 to 105 °C
- IC50 [2]: 5000 to 10000 nM

Compound: CCCCC(CC)COc1ccc(CC(NC(=O)C2CCC(C)(C(=O)O)C2(C)C)C(=O)O)cc1 (centres unmarked) [Example 14]
- melting point: 94 to 97 °C
- IC50 [2]: 5000 to 10000 nM

Compound: CC1(C)[C@@H](C(=O)N[C@@H](Cc2cn(Cc3ccccc3)cn2)C(=O)O)CC[C@@]1(C)C(=O)O [Example 29]
- IC50 [1]: 500 to 1000 nM
- melting point: 258 to 259 °C (dec.)
- IC50 [2]: 5000 to 10000 nM

Compound: CC1(C)[C@@H](C(=O)N[C@@H](Cc2cccc(OCc3ccccc3)c2)C(=O)O)CC[C@@]1(C)C(=O)O [Example 46]
- melting point: 88 to 90 °C
- IC50 [2]: 800 to 5000 nM

Compound: CC1(C)[C@@H](C(=O)N[C@@H](Cc2ccc(O)c(NC(=O)c3c(Cl)cccc3Cl)c2)C(=O)O)CC[C@@]1(C)C(=O)O [Example 61]
- IC50 [1]: 80 to 500 nM
- melting point: 168 to 171 °C
- IC50 [2]: 800 to 5000 nM

Compound: CC1(C)[C@@H](C(=O)N[C@@H](Cc2ccc(NC(=O)C3CCCCC3)cc2)C(=O)O)CC[C@@]1(C)C(=O)O [Example 75]
- melting point: 151 to 154 °C
- IC50 [2]: 800 to 5000 nM

Compound: CC1(C)[C@@H](C(=O)N[C@@H](Cc2ccc(NC(=O)c3cccc(C(=O)c4ccccc4)c3)cc2)C(=O)O)CC[C@@]1(C)C(=O)O [Example 89]
- IC50 [1]: 80 to 500 nM
- melting point: 190 to 193 °C
- IC50 [2]: 800 to 5000 nM

Compound: CCCCCCCc1ccc(C(=O)Nc2ccc(C[C@H](NC(=O)[C@H]3CC[C@@](C)(C(=O)O)C3(C)C)C(=O)O)cc2)cc1 [Example 122]
- melting point: 212 to 214 °C
- IC50 [2]: 800 to 5000 nM

Compound: CC(C)CC(=O)Nc1ccc(C[C@H](NC(=O)[C@H]2CC[C@@](C)(C(=O)O)C2(C)C)C(=O)O)cc1 [Example 134]
- melting point: 146 to 148 °C
- IC50 [2]: 800 to 5000 nM

Compound: CONC(=O)[C@]1(C)CC[C@H](C(=O)N[C@@H](Cc2ccc(OCc3c(Cl)cccc3Cl)cc2)C(=O)O)C1(C)C [Example 163]
- IC50 [1]: 500 to 1000 nM
- melting point: 70 to 72 °C

Compound: CC(=O)N(Cc1c(Cl)cccc1Cl)c1ccc(C[C@H](NC(=O)[C@H]2CC[C@@](C)(C(=O)O)C2(C)C)C(=O)O)cc1 [Example 170]
- melting point: 241 to 244 °C
- IC50 [2]: 5000 to 10000 nM

Compound: COC(=O)[C@H](Cc1ccc(NC(=O)c2c(Cl)cccc2Cl)cc1)NC(=O)[C@H]1CC[C@@](C)(C(=O)NCC(N)=O)C1(C)C [Example 233, (1S-cis)-N-[[3-[[(2-Amino-2-oxoethyl)amino]carbonyl]-2,2,3-trimethylcyclopentyl]carbonyl]-4-[(2,6-dichlorobenzoyl)amino]-L-phenylalanine methyl ester]
- melting point: 232 to 233 °C

Compound: CC1(C)[C@H](C(=O)O)CC[C@]1(C)C(=O)N[C@@H](Cc1ccc(NC(=O)c2c(Cl)cccc2Cl)cc1)C(=O)O [Example 244, (1S-cis)-N-[(3-Carboxy-1,2,2-trimethylcyclopentyl)carbonyl]-4-[(2,6-dichlorobenzoyl)amino]-L-phenylalanine]
- melting point: 152 to 157 °C

Compound: CC1(C)[C@@H](C(=O)O)CC[C@]1(C)C(=O)N[C@H](Cc1ccc(NC(=O)c2c(Cl)cccc2Cl)cc1)C(=O)O [Example 246, (1S-trans)-N-[(3-Carboxy-1,2,2-trimethylcyclopentyl)carbonyl]-4-[(2,6-dichlorobenzoyl)amino]-D-phenylalanine]
- melting point: 145 to 150 °C

Compound: CC1(C)[C@H](C(=O)O)CC[C@@]1(C)C(=O)N[C@@H](Cc1ccc(NC(=O)c2c(Cl)cccc2Cl)cc1)C(=O)O [Example 250, (1R-trans)-N-[(3-Carboxy-1,2,2-trimethylcyclopentyl)carbonyl]-4-[(2,6-dichlorobenzoyl)amino]-L-phenylalanine]
- melting point: 148 to 155 °C

Compound: CC1(C)[C@@H](C(=O)N[C@@H](Cc2ccc(NC(=O)c3c(Cl)cccc3Cl)c(Br)c2)C(=O)O)CC[C@@]1(C)C(=O)O [Example 252, (1S-cis)-N-[(3-Carboxy-2,2,3-trimethylcyclopentyl)carbonyl]-3-bromo-4-[(2,6-dichlorobenzoyl)amino]-L-phenylalanine]
- melting point: 150 to 152 °C

The remaining lines, values ahead:

- IC50 [1]: 80 to 500 nM
- melting point: 102 to 104 °C
- IC50 [2]: 800 to 5000 nM
Compound: CC1(C)[C@@H](C(=O)N[C@@H](Cc2ccc(NC(=O)c3ccccn3)cc2)C(=O)O)CC[C@@]1(C)C(=O)O [Example 77]

- melting point: 238 to 240 °C
- IC50 [2]: 5000 to 10000 nM
Compound: CC(=O)Nc1ccc(C[C@H](NC(=O)[C@H]2CC[C@@](C)(C(=O)O)C2(C)C)C(=O)O)cc1 [Example 79]

- IC50 [1]: 80 to 500 nM
- melting point: 195 to 198 °C
- IC50 [2]: ≤ 800 nM
Compound: Cc1cccc(C)c1C(=O)Nc1ccc(C[C@H](NC(=O)[C@H]2CC[C@@](C)(C(=O)O)C2(C)C)C(=O)O)cc1 [Example 81]

- IC50 [1]: ≤ 80 nM
- melting point: 150 to 152 °C
- IC50 [2]: ≤ 800 nM
Compound: CC1(C)[C@@H](C(=O)N[C@@H](Cc2ccc(NC(=O)c3c(F)cccc3F)cc2)C(=O)O)CC[C@@]1(C)C(=O)O [Example 83]

- IC50 [1]: 80 to 500 nM
- melting point: 145 to 148 °C
- IC50 [2]: 5000 to 10000 nM
Compound: CC1(C)[C@@H](C(=O)N[C@@H](Cc2ccc(NC(=O)c3ccccc3)cc2)C(=O)O)CC[C@@]1(C)C(=O)O [Example 85]

- IC50 [1]: ≤ 80 nM
- melting point: 155 to 158 °C
- IC50 [2]: ≤ 800 nM
Compound: CC1(C)[C@@H](C(=O)N[C@@H](Cc2ccc(NC(=O)c3cc(Cl)ccc3Cl)cc2)C(=O)O)CC[C@@]1(C)C(=O)O [Example 87]

- IC50 [1]: ≤ 80 nM
- melting point: 146 to 149 °C
- IC50 [2]: 800 to 5000 nM
Compound: CC1(C)[C@@H](C(=O)N[C@@H](Cc2ccc(NC(=O)c3cccc([N+](=O)[O-])c3)cc2)C(=O)O)CC[C@@]1(C)C(=O)O [Example 91]

- IC50 [1]: 500 to 1000 nM
- melting point: 148 to 150 °C
Compound: CC1(C)[C@@H](C(=O)N[C@@H](Cc2ccc(NC(=O)c3ccccc3O)cc2)C(=O)O)CC[C@@]1(C)C(=O)O [Example 143]

- melting point: 263 to 267 °C
Compound: CC1(C)[C@@H](C(=O)N[C@H](Cc2ccc(NC(=O)c3c(Cl)cccc3Cl)cc2)C(=O)O)CC[C@@]1(C)C(=O)O [Example 237, (1S-cis)-N-[(3-Carboxy-2,2,3-trimethylcyclopentyl)carbonyl]-4-[(2,6-dichlorobenzoyl)amino]-D-phenylalanine]

Source: patent US6482849B1, “Inhibitors of α4β1 mediated cell adhesion” (Tanabe Seiyaku Co., Ltd., priority 1997, dated 2002)
